The source of these data is patent US6458978B1, “Fluorous phosphines and process for their preparation” (Atofina Vlissingen B.V., priority 1998, dated 2002).

Each structure is given as a SMILES string.

Data set [1] in a line: Determination of partition coefficients of phosphines in fluorous biphasic systems (ICP-AAS on phosphorus). In kind it is physicochemical. The settings on record: 0° C., 1:1 mixture (v/v). The text has this:
For applications in fluorous bi-phasic catalysis and for catalyst recycling by fluorous phase extraction techniques an important feature of the fluorous aryl phosphines and the derived catalytic complexes is the partition coefficient P(P=Cfluorous phase/Corganic phase. C=concentration) in fluorous bi-phasic systems.
11. Determination of Partition Coefficients
The partition coefficients were determinded by dissolving a known amount of phosphine (typically between 11 and 60 μmol) in a fluorous biphasic system either consisting of c-C6F11CF3 (2.000±0.002 mL) and n-pentane, n-octane or toluene (2.006±0.002 mL). The resulting mixture was stirred at 25° C. until all solid had dissolved and equilibrated in a water ice bath (1 h). An aliquot (0.500±0.002 mL) was removed from each layer by syringe. Analysis by ICP-AAS on phosphorus gave the amount of phosphine present, with an accuracy of ±0.3 ppm. A conservative estimate of the experimental error in the partition coefficient is ±1 in the last digit.

Data set [2] is described as follows: Solubility of dppe and dppe derivatives G{m,x} in perfluorinated and non-fluorinated solvents. Format: physicochemical. The following applies: for solubility at room temperature, FC-72: FC-72: mixture of perfluorinated hexanes.
Data set [3] can be described thus: Hydrogenation of 1-octene under single phase conditions in α,α,α-trifluorotoluene. As to the method: To be able to directly compare the activities of fluorous derivatives H{1,6} and H{1,8} with non-fluorous [P(C6H4-4-SiMe3)3]3RhCl (H{0}) and the conventional Wilkinson catalyst (PPh3)3RhCl, homogeneous hydrogenation of 1-octene were carried out under single phase conditions in the hybrid solvent α,α,α-trifluorotoluene at atmospheric H2 pressures. Highest rates of hydrogen uptake (14.2 mol.L^−1.h^−1) were measured for 1c at relatively high rhodium and olefine concentrations (entry 2, Table 7). Under these conditions a zero-order dependence in [1-octene] was found up to ca 80% conversion resulting in a linear conversion versus time plot. In all other experiments ([Rh]=4.0-8.0 mM, [1-octene]0=1.46 M) rates of hydrogen uptake were lower (<11 mol.L^−1.h^−1) and conversion versus time plots corresponded to a rate law -d[1-octene]/dt=kobs.[1-octene] for >98% conversion allowing to evaluate catalyst activity in terms of the observed first order rate constant kobs. Since for these experiments the rates of dihydrogen uptake were well below the maximum value obtained in entry 2, diffusion limitation of H2 can be excluded. In addition to kobs, turn over frequencies (TOF in mol.mol^−1.h^−1) were derived from the tangent of a 4^thorder polynomal fit to conversion versus time plots at 25% conversion and serve as a measure of catalyst activity independent of any assumed kinetic relationship with substrate.
Catalytic reactions were carried out under single phase conditions in CF3C6H5 at 80° C. under 1 bar of hydrogen pressure. After >90% conversion (monitored by the H2 uptake) volatiles were distilled off and analyzed by GC. Activities (TOF) were determined for 25% conversion.

Where [4] appears, read: [Rh] 4.0 mM, [1-octene] 1.46 M, T = 80° C., p(H2) = 1 bar, α,α,α-trifluorotoluene.
Where [5] appears, read: [Rh] 8.0 mM, [1-octene] 2.92 M, T = 80° C., p(H2) = 1 bar, α,α,α-trifluorotoluene.

In the case of `C[Si](C)(C)c1ccc(P(c2ccc([Si](C)(C)C)cc2)c2ccc([Si](C)(C)C)cc2)cc1` [D{0}, P(C6H4SiMe3-4)3, reference compound], the “Fluorous partition coefficient P = cfluorous phase/corganic phase, toluene/c-C6F11CF3” value in data set [1] is given as 0.007.

For the compound `C[Si](C)(CCC(F)(F)C(F)(F)C(F)(F)C(F)(F)C(F)(F)C(F)(F)F)c1ccc(P(c2ccc([Si](C)(C)CCC(F)(F)C(F)(F)C(F)(F)C(F)(F)C(F)(F)C(F)(F)F)cc2)c2ccc([Si](C)(C)CCC(F)(F)C(F)(F)C(F)(F)C(F)(F)C(F)(F)C(F)(F)F)cc2)cc1` [D{1,6}], in data set [1], the “Fluorous partition coefficient P = cfluorous phase/corganic phase, n-octane/c-C6F11CF3” value came out at 0.42; the “Fluorous partition coefficient P = cfluorous phase/corganic phase, n-pentane/c-C6F11CF3” value was determined as 0.53; the “Fluorous partition coefficient P = cfluorous phase/corganic phase, toluene/c-C6F11CF3” value is 0.13.

With `C[Si](C)(CCC(F)(F)C(F)(F)C(F)(F)C(F)(F)C(F)(F)C(F)(F)C(F)(F)C(F)(F)F)c1ccc(P(c2ccc([Si](C)(C)CCC(F)(F)C(F)(F)C(F)(F)C(F)(F)C(F)(F)C(F)(F)C(F)(F)C(F)(F)F)cc2)c2ccc([Si](C)(C)CCC(F)(F)C(F)(F)C(F)(F)C(F)(F)C(F)(F)C(F)(F)C(F)(F)C(F)(F)F)cc2)cc1` [D{1,8}], in data set [1], the “Fluorous partition coefficient P = cfluorous phase/corganic phase, n-octane/c-C6F11CF3” value is listed as 1.4; the “Fluorous partition coefficient P = cfluorous phase/corganic phase, n-pentane/c-C6F11CF3” value was 0.78; the “Fluorous partition coefficient P = cfluorous phase/corganic phase, toluene/c-C6F11CF3” value was determined as 1.06.

In the case of `C[Si](CCC(F)(F)C(F)(F)C(F)(F)C(F)(F)C(F)(F)C(F)(F)F)(CCC(F)(F)C(F)(F)C(F)(F)C(F)(F)C(F)(F)C(F)(F)F)c1ccc(P(c2ccc([Si](C)(CCC(F)(F)C(F)(F)C(F)(F)C(F)(F)C(F)(F)C(F)(F)F)CCC(F)(F)C(F)(F)C(F)(F)C(F)(F)C(F)(F)C(F)(F)F)cc2)c2ccc([Si](C)(CCC(F)(F)C(F)(F)C(F)(F)C(F)(F)C(F)(F)C(F)(F)F)CCC(F)(F)C(F)(F)C(F)(F)C(F)(F)C(F)(F)C(F)(F)F)cc2)cc1` [D{2,6}, P[C6H4Si(CH2CH2C6F13)2Me-4]3], in data set [1], the “Fluorous partition coefficient P = cfluorous phase/corganic phase, n-octane/c-C6F11CF3” value amounted to 6.6; the “Fluorous partition coefficient P = cfluorous phase/corganic phase, n-pentane/c-C6F11CF3” value is reported as 2.0; the “Fluorous partition coefficient P = cfluorous phase/corganic phase, toluene/c-C6F11CF3” value came out at 3.8.

Turning to `C[Si](CCC(F)(F)C(F)(F)C(F)(F)C(F)(F)C(F)(F)C(F)(F)C(F)(F)C(F)(F)F)(CCC(F)(F)C(F)(F)C(F)(F)C(F)(F)C(F)(F)C(F)(F)C(F)(F)C(F)(F)F)c1ccc(P(c2ccc([Si](C)(CCC(F)(F)C(F)(F)C(F)(F)C(F)(F)C(F)(F)C(F)(F)C(F)(F)C(F)(F)F)CCC(F)(F)C(F)(F)C(F)(F)C(F)(F)C(F)(F)C(F)(F)C(F)(F)C(F)(F)F)cc2)c2ccc([Si](C)(CCC(F)(F)C(F)(F)C(F)(F)C(F)(F)C(F)(F)C(F)(F)C(F)(F)C(F)(F)F)CCC(F)(F)C(F)(F)C(F)(F)C(F)(F)C(F)(F)C(F)(F)C(F)(F)C(F)(F)F)cc2)cc1` [D{2,8}], in data set [1], the “Fluorous partition coefficient P = cfluorous phase/corganic phase, n-octane/c-C6F11CF3” value turned out to be 11; the “Fluorous partition coefficient P = cfluorous phase/corganic phase, n-pentane/c-C6F11CF3” value is recorded as 3.3; the “Fluorous partition coefficient P = cfluorous phase/corganic phase, toluene/c-C6F11CF3” value stood at 3.8.

As for `FC(F)(F)C(F)(F)C(F)(F)C(F)(F)C(F)(F)C(F)(F)CC[Si](CCC(F)(F)C(F)(F)C(F)(F)C(F)(F)C(F)(F)C(F)(F)F)(CCC(F)(F)C(F)(F)C(F)(F)C(F)(F)C(F)(F)C(F)(F)F)c1ccc(P(c2ccc([Si](CCC(F)(F)C(F)(F)C(F)(F)C(F)(F)C(F)(F)C(F)(F)F)(CCC(F)(F)C(F)(F)C(F)(F)C(F)(F)C(F)(F)C(F)(F)F)CCC(F)(F)C(F)(F)C(F)(F)C(F)(F)C(F)(F)C(F)(F)F)cc2)c2ccc([Si](CCC(F)(F)C(F)(F)C(F)(F)C(F)(F)C(F)(F)C(F)(F)F)(CCC(F)(F)C(F)(F)C(F)(F)C(F)(F)C(F)(F)C(F)(F)F)CCC(F)(F)C(F)(F)C(F)(F)C(F)(F)C(F)(F)C(F)(F)F)cc2)cc1` [D{3,6}], in data set [1], the “Fluorous partition coefficient P = cfluorous phase/corganic phase, n-octane/c-C6F11CF3” value amounted to 3.7; the “Fluorous partition coefficient P = cfluorous phase/corganic phase, n-pentane/c-C6F11CF3” value is reported as 5.3; the “Fluorous partition coefficient P = cfluorous phase/corganic phase, toluene/c-C6F11CF3” value was found to be 2.1.

As to `FC(F)(F)C(F)(F)C(F)(F)C(F)(F)C(F)(F)C(F)(F)C(F)(F)C(F)(F)CC[Si](CCC(F)(F)C(F)(F)C(F)(F)C(F)(F)C(F)(F)C(F)(F)C(F)(F)C(F)(F)F)(CCC(F)(F)C(F)(F)C(F)(F)C(F)(F)C(F)(F)C(F)(F)C(F)(F)C(F)(F)F)c1ccc(P(c2ccc([Si](CCC(F)(F)C(F)(F)C(F)(F)C(F)(F)C(F)(F)C(F)(F)C(F)(F)C(F)(F)F)(CCC(F)(F)C(F)(F)C(F)(F)C(F)(F)C(F)(F)C(F)(F)C(F)(F)C(F)(F)F)CCC(F)(F)C(F)(F)C(F)(F)C(F)(F)C(F)(F)C(F)(F)C(F)(F)C(F)(F)F)cc2)c2ccc([Si](CCC(F)(F)C(F)(F)C(F)(F)C(F)(F)C(F)(F)C(F)(F)C(F)(F)C(F)(F)F)(CCC(F)(F)C(F)(F)C(F)(F)C(F)(F)C(F)(F)C(F)(F)C(F)(F)C(F)(F)F)CCC(F)(F)C(F)(F)C(F)(F)C(F)(F)C(F)(F)C(F)(F)C(F)(F)C(F)(F)F)cc2)cc1` [D{3,8}], in data set [1], the “Fluorous partition coefficient P = cfluorous phase/corganic phase, n-octane/c-C6F11CF3” value stood at 4.8; the “Fluorous partition coefficient P = cfluorous phase/corganic phase, n-pentane/c-C6F11CF3” value worked out at 7.0; the “Fluorous partition coefficient P = cfluorous phase/corganic phase, toluene/c-C6F11CF3” value was 1.0.

For the compound `C[Si](C)(C)c1ccc(P(CCP(c2ccc([Si](C)(C)C)cc2)c2ccc([Si](C)(C)C)cc2)c2ccc([Si](C)(C)C)cc2)cc1` [G{0}, (Me3SiC6H4-4)2PCH2CH2P(C6H4SiMe3-4)2, reference compound], in data set [2], the “solubility at room temperature, THF” value is recorded as “+ (+: >0.1 g/ml)” and the “solubility at room temperature, FC-72” value is “− (−: <0.01 g/ml)”.

For the compound `C[Si](C)(CCC(F)(F)C(F)(F)C(F)(F)C(F)(F)C(F)(F)C(F)(F)F)c1ccc(P(CCP(c2ccc([Si](C)(C)CCC(F)(F)C(F)(F)C(F)(F)C(F)(F)C(F)(F)C(F)(F)F)cc2)c2ccc([Si](C)(C)CCC(F)(F)C(F)(F)C(F)(F)C(F)(F)C(F)(F)C(F)(F)F)cc2)c2ccc([Si](C)(C)CCC(F)(F)C(F)(F)C(F)(F)C(F)(F)C(F)(F)C(F)(F)F)cc2)cc1` [G{1,6}], in data set [2], the “solubility at room temperature, THF” value is on record as “+ (+: >0.1 g/ml)”; the “solubility at room temperature, toluene” value is reported as “+ (+: >0.1 g/ml)”; the “solubility at room temperature, FC-72” value is recorded as “− (−: <0.01 g/ml)”.

As for `C[Si](C)(CCC(F)(F)C(F)(F)C(F)(F)C(F)(F)C(F)(F)C(F)(F)C(F)(F)C(F)(F)F)c1ccc(P(CCP(c2ccc([Si](C)(C)CCC(F)(F)C(F)(F)C(F)(F)C(F)(F)C(F)(F)C(F)(F)C(F)(F)C(F)(F)F)cc2)c2ccc([Si](C)(C)CCC(F)(F)C(F)(F)C(F)(F)C(F)(F)C(F)(F)C(F)(F)C(F)(F)C(F)(F)F)cc2)c2ccc([Si](C)(C)CCC(F)(F)C(F)(F)C(F)(F)C(F)(F)C(F)(F)C(F)(F)C(F)(F)C(F)(F)F)cc2)cc1` [G{1,8}], in data set [2], the “solubility at room temperature, THF” value was “− (−: <0.01 g/ml)”; the “solubility at room temperature, toluene” value is given as “− (−: <0.01 g/ml)”; the “solubility at room temperature, FC-72” value is recorded as “− (−: <0.01 g/ml)”.

On to `C[Si](C)(C)c1ccc([PH](c2ccc([Si](C)(C)C)cc2)(c2ccc([Si](C)(C)C)cc2)[Rh]([Cl])([PH](c2ccc([Si](C)(C)C)cc2)(c2ccc([Si](C)(C)C)cc2)c2ccc([Si](C)(C)C)cc2)[PH](c2ccc([Si](C)(C)C)cc2)(c2ccc([Si](C)(C)C)cc2)c2ccc([Si](C)(C)C)cc2)cc1` [H{0}, [P(C6H4-4-SiMe3)3]3RhCl], for which, in data set [3] (setting [4]), the “TOF(25%), turn over frequency at 25% conversion” value was 1610 h⁻¹; the “TON (mole of olefin/mole of Rh)” value is reported as 336; the conversion was 92%; the “kobs (first order rate constant)” value was 7.5(2) h^−1. In data set [3] (setting [5]), the “TOF(25%), turn over frequency at 25% conversion” value was 1910 h⁻¹; the “TON (mole of olefin/mole of Rh)” value amounted to 361; the conversion is on record as 99%; the “kobs (zero order in olefin up to 80% conversion)” value is given as “^eZero order in olefin up to 80% conversion, kobs = 14.2(1) mol.L^−1.h^−1”. Moreover, the “activity relative to Wilkinson's catalyst” value in data set [3] (derived from Table 7) was more than 1.5 times. The “Highest rate of hydrogen uptake” value in data set [3] (relatively high rhodium and olefine concentrations (entry 2, Table 7)) worked out at 14.2 mol/L/h.
